Patent publication US12613246B2, “Fluorescent probe and protein labeling method” (SHANGHAI GLORY CAPITAL MANAGEMENT LTD., priority 2018, dated 2026)

Assays:
[1] = Fluorescence emission spectra of probes in glycerol and methanol (viscosity response); format: physicochemical; details: maximum excitation wavelength of each probe; for Fluorescence ratio in glycerol methanol: 1×10^−5 M; for Emission wavelength: medium not given
Text: Respectively dissolve Probe 1-32 and Reference Probes BG-CCVJ and BG-Gly-CCVJ in dimethyl sulfoxide so as to prepare a mother liquid with a concentration of 1×10^−2M; add the mother liquid to glycerol and methanol respectively and mix them well to prepare a solution with a concentration of 1×10^−5 M. Based on different probes, the fluorescence emission spectrum of each probe are detected under the same conditions with maximum excitation wavelength of each probe.
The probes are sensitive to the change of viscosity and have viscosity response.

[2] = Fluorescence of free probe before reaction with the protein tag; format: physicochemical
Experimental: (§1) Mix the probe with corresponding protein tag to obtain the mixed sample, wherein the final concentration of probe in the mixed sample is 5 μM, and the final concentration of protein tags is 10 μM; hatch the mixed sample at 37° C. for 1 h, and detect its fluorescence intensity change by using the fluorescence spectrophotometer.
(§2) According to the free probe quantum yield shown in Table 1, the fluorescence of the probes of and reference probes are extremely low before the reaction with the protein tag, and is close to the background fluorescence level of PBS buffer solution. […] However, according to the quantum yield of the binding protein tag, the fluorescence signal enhancement can be detected in the corresponding excitation emission channel after the probe reacts with the protein tag with hundreds to one thousand fold fluorescence activation times and very high brightness; the reference probes also can activate fluorescence, but the fluorescence quantum yield and brightness after activation are quite low.

SNAP protein tag [3] = test: Fluorescence activation after mixing probe with corresponding protein tag (SNAP); format: biochemical; details: probe 5 μM, protein tag 10 μM, 37° C., 1 h
Experimental: as §1, §2

Hela cells [4] = test: Labeling of Hela cells expressing protein tags versus Hela-WT cells, confocal microscopy; format: cell-based; details: probe 5 μM, 37° C., 2 h
Experimental: Take Hela cells as an example to detect the labeling effect of the compounds in mammalian cells. Hela cells and Hela-WT cells (Hela primitive cells without expressing protein tags), which can express protein tags stably, are planted in a glass bottom 96-well plate of 14 mm for 10 h. Add Probe 16, Probe 17 and Probe 18 into a culture medium respectively and dilute them to 5 μM. Hatch the cells in a carbon dioxide incubator at 37° C. for 2 h. Detect the fluorescence changes of labeled cells by using Leica TPS-8 confocal microscopy.

Hela cells [5] = test: Labeling of protein tags located in different organelles of Hela cells without washing; format: cell-based; details: probe 0.2 μM, 2 h
Experimental: Plant Hela cells (5000 cells/well) in a glass bottom plate of 96-well for 14 h, and then use Lipo2000 kit to transfect protein tags to locate plasmids in different organelles. After 24 h of transfection, remove the original culture medium, wash the culture medium twice with phenol free red DMEM culture medium, and hatch the cells with phenol free red medium containing probe (0.2 μM) for 2 h, and detect the effect of cell labeling by using Leica TCS-8 confocal microscopy imaging.

Hela cells [6] = test: Two-colour orthogonal labeling of CLIP-histone and mito-SNAP in the same Hela cell; format: cell-based; details: Probe 16 and Probe 9, 0.2 μM, 2 h, without washing
Experimental: Plant Hela cells (5000 cells/well) in a glass bottom plate of 96-well for 14 h; transfect pcdna3.1-CLIP-histone (CLIP protein labeled chromosome localization plasmid) and pcdna3.1-mito-SNAP (SNAP protein labeled […] localization plasmid) by using Lipo2000 kit (0.1 μg/well). After 24 h of transfection, remove the original culture medium, and wash the culture medium twice with phenol free red DMEM culture medium, and hatch the cells respectively with phenol free red medium containing Probe 16 and Probe 9 (0.2 μM) for 2 h, and detect the effect of cell labeling by using Leica TCS-8 confocal microscopy imaging.

SNAP protein tag [7] = test: Labeling of SNAP protein tag expressed in the liver of living mice; format: in vivo; details: 0.4 μM in 200 μL PBS intravenously, 6 h
Experimental: Firstly, introduce the plasmid pcdna3.1-SNAP (sample group) with SNAP protein expressing and the contrastive plasmid pcdna3.1-CAT (contrastive group) without SNAP protein expressing into mice. In this method, the plasmid is dissolved in a large volume of solution and rapidly injected into mice intravenously. The plasmid is absorbed by mouse liver, and then express the target protein. After 24 h of plasmid injection, inject the Probe 16 (0.4 μM) dissolved in 200 μL of PBS into mice intravenously to label SNAP protein tag. After 6 h, dissect the mice, and detect liver fluorescence differences by using Kodak multispectral vivo imaging system.

SNAP-IAA17-H2B = test: Probe fluorescence during IAA-induced protein degradation (AID system) in Hela cells; format: cell-based; details: probe 1 μM; 140 min after IAA added
Experimental: In order to verify that the fluorescence activation of the probe is related to the existence of protein, SNAP protein of mammalian cells is taken as an example, and AID degradation system is an example of detecting the fluorescence changes of probes combined with SNAP after protein degradation in Hela cells. Firstly, plant Hela cells (20000/cm^2) in a glass bottom cell culture medium of 20 mm for 14 h, and then transect the plasmids pcdna3.1-TIR1 and pcdna3.1-SNAP-IAA17-H2B by means of Lipofectmain2000 transfection reagent (Invertogen Co.). After the cells are transfected for 24 h, replace the cells labeled by the original cell culture medium with phenol red DMEM culture medium containing Probe 16 (1 μM), and hatch the cee sample in a carbon dioxide incubator at 37° C. for 1 h. After labeling, detect the fluorescence signal of the labeled cells by using Leica SP8 laser confocal microscopy imaging, and add indoleacetic acid (IAA) to induce the protein degradation of SNAP-IAA17-H2B, and detect the changes of cell fluorescence during protein degradation.

CLIP protein tag = test: Fluorescence activation after mixing probe with corresponding protein tag (CLIP); format: biochemical; details: probe 5 μM, protein tag 10 μM, 37° C., 1 h
Experimental: as §1, §2

Row | SMILES | Fluorescence ratio in glycerol methanol [1] | Emission wavelength [1] [nm] | Quantum yield of free probe [2] | Quantum yield of binding protein tags (CLIP protein tag) | Fluorescence activation multiple (SNAP protein tag [3]) | Quantum yield of binding protein tags (SNAP protein tag [3]) | Fluorescence signal in Hela-WT cells (without protein tags) (Hela cells [4]) | Increase of fluorescence signal in cells expressing protein tags (Hela cells [4]) [times] | Display of subcellular organelle structures (Hela cells [5]) | Display of mitochondria and chromosomes in the same cell (Hela cells [6]) | Liver fluorescence intensity of pcdna3.1-SNAP mice relative to the contrastive group (SNAP protein tag [7]) | Liver fluorescence of mice injected with contrastive plasmid pcdna3.1-CAT (SNAP protein tag [7]) | Fluorescence signal of SNAP-IAA17-H2B protein after IAA addition (SNAP-IAA17-H2B) | Fluorescence activation multiple (CLIP protein tag)
1 | CN(CCOC(=O)NCc1ccc(COc2nc(N)nc3[nH]cnc23)cc1)c1ccc2c(c1)C(C)(C)c1cc(/C=C(\C#N)C(=O)OC(C)(C)C)sc1-2 [Probe 16] | 1421 | 645 | <0.001 |  | 842 | 0.71 | no corresponding fluorescence signal is detected | ~700 | can clearly display a variety of subcellular organelle structures without washing | clearly and simultaneously display the structure of mitochondria and chromosomes without washing | more than 20 fold | very low | almost negligible | 
2 | CN(CCOC(=O)NCc1ccc(COc2nccc(N)n2)cc1)c1ccc2c(c1)C(C)(C)c1cc(/C=C(\C#N)C(=O)OC(C)(C)C)sc1-2 [Probe 24] | 1125 | 645 | <0.001 | 0.55 |  |  |  |  |  |  |  |  |  | 535
3 | CN(CCOC(=O)NCc1ccc(COc2nccc(N)n2)cc1)c1ccc2c(c1)C(C)(C)c1cc(/C=C(\C#N)c3nc4ccccc4o3)sc1-2 [Probe 25] | 782 | 670 | <0.001 | 0.41 |  |  |  |  |  |  |  |  |  | 421

More lines, main results first:

Row | Fluorescence ratio in glycerol methanol [1] | Emission wavelength [1] [nm] | Quantum yield of free probe [2] | Quantum yield of binding protein tags (CLIP protein tag) | SMILES | Fluorescence activation multiple (SNAP protein tag [3]) | Quantum yield of binding protein tags (SNAP protein tag [3]) | Fluorescence signal in Hela-WT cells (without protein tags) (Hela cells [4]) | Increase of fluorescence signal in cells expressing protein tags (Hela cells [4]) [times] | Display of subcellular organelle structures (Hela cells [5]) | Display of mitochondria and chromosomes in the same cell (Hela cells [6]) | Liver fluorescence intensity of pcdna3.1-SNAP mice relative to the contrastive group (SNAP protein tag [7]) | Liver fluorescence of mice injected with contrastive plasmid pcdna3.1-CAT (SNAP protein tag [7]) | Fluorescence signal of SNAP-IAA17-H2B protein after IAA addition (SNAP-IAA17-H2B) | Fluorescence activation multiple (CLIP protein tag)
4 | 1123 | 675 | <0.001 |  | CN(CCOC(=O)NCc1ccc(COc2nc(N)nc3[nH]cnc23)cc1)c1ccc2c(c1)C(C)(C)c1cc(/C=C(\C#N)c3nc4ccccc4s3)sc1-2 [Probe 18] | 890 | 0.48 | no corresponding fluorescence signal is detected | ~700 | can clearly display a variety of subcellular organelle structures without washing |  |  |  |  | 
5 | 522 | 675 | <0.001 | 0.46 | CN(CCOC(=O)NCc1ccc(COc2nccc(N)n2)cc1)c1ccc2c(c1)C(C)(C)c1cc(/C=C(\C#N)c3nc4ccccc4s3)sc1-2 [Probe 26] |  |  |  |  |  |  |  |  |  | 478
6 | 1024 | 652 | <0.001 | 0.57 | CN(CCOC(=O)NCc1ccc(COc2nccc(N)n2)cc1)c1ccc2c(c1)C(C)(C)c1cc(/C=C(\C#N)C(=O)OC(C)(C)C)oc1-2 [Probe 29] |  |  |  |  |  |  |  |  |  | 933
